In data set [1] the target is T1, human liver GK (GST-hLGK1) (Homo sapiens, UniProt P35557).
T1 construct: with a BamHI site added to immediately before the initiation codon; made in house; host or cells: Escherichia coli BL21 (Stratagene), plasmid pGEX6P-2/hLGK1
T1 sequence (P35557 1-464 isoform P35557-3): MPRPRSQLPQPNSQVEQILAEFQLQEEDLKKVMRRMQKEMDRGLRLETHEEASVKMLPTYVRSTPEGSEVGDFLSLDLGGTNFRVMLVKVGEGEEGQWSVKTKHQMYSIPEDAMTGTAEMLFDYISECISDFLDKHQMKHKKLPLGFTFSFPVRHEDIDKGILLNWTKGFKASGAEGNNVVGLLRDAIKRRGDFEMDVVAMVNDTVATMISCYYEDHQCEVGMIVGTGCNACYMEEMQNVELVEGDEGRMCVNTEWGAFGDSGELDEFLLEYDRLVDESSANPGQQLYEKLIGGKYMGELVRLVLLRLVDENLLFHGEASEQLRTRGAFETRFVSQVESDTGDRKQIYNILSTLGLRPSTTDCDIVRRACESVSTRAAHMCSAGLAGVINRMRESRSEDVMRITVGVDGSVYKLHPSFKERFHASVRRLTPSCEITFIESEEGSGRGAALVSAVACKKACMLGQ
The data set can be described thus: Measurement of GK activation value. The format is biochemical. To be noted: GST-hLGK1 6 μg/mL, 5 mmol/L D-glucose, 50 μmol/L Mant-ATP, 60 min at 37° C.; concentration at midpoint between maximum activity value and control activity value. The protocol:
GK enzyme reactions were performed in 50 mmol/L HEPES pH 7.4, 200 mmol/L KCl, 5 mmol/L MgCl2, 2 mmol/L DTT, containing 50 μmol/L 2′-(or -3′)-O—(N-methylanthraniloyl)adenosine 5′-triphosphate (Mant-ATP) (Jena Bioscience GmbH), 5 mmol/L D-glucose, 5% DMSO and 6 μg/mL GST-hLGK1 obtained in Reference Example 2A in a total volume 50 μL. The reactions were performed in 384 well black plates (Nalge Nunc International K.K.). Prior to the reaction, the enzyme and test compound were incubated for 10 min at 37° C., and 25 mM D-glucose solution (10 μL) was added to start the reaction.
After the incubation for 60 min at 37° C., the reaction was quenched by adding 25 μL of a quenching solution (containing 200 mM HEPES (pH 7.4), 20 mM MgCl2, 200 mM EDTA, 0.03% Triton-X 100, 0.3% Coating 3 reagent (Caliper Life Sciences, Inc.)).
Mant-ATP (substrate, 2′- (or -3′)-O—(N-methylanthraniloyl) adenosine 5′-triphosphate) and Mant-ADP (reaction resultant product) were separated from each well after the reaction by a microchip type capillary electrophoresis apparatus 250 HTS (Caliper Life Sciences, Inc.). The reaction rate [(reaction resultant product peak height)/(reaction resultant product peak height+substrate peak height)×100(%)] was calculated from the ratio of the substrate peak height and reaction resultant product peak height obtained by fluorescence detection (excitation wavelength 355 nm, measurement wavelength 460 nm) and used as the index of GK activity.
As a control group, the reaction rate was calculated in the same manner as above without the test compounds.
The percentage obtained by dividing the reaction rate of the well added with each concentration of the test compound (test compound addition group) by the reaction rate of the control group was taken as the GK activity value, and the concentration of the test compound at the midpoint between the maximum activity value of the test compound addition group and the control group activity value is shown as EC50 value.

pEC50: −log10 of the molar value.

Consider `COc1cc(Oc2ccc(S(C)(=O)=O)nc2)cc2cc(C3=NCC(CC(=O)N(C)C)S3)[nH]c12` (stereo not shown) [Example 79, 2-[2-(7-Methoxy-5-{[6-(methylsulfonyl)pyridin-3-yl]oxy}-1H-indol-2-yl)-4,5-dihydro-1,3-thiazol-5-yl]-N,N-dimethylacetamide], for which the melting point is 206 to 207 °C. The same compound showed a negative logarithm of the EC50 (pEC50) in data set [1] of 7.46.

Consider `COc1cc(Oc2ccc(S(C)(=O)=O)nc2)cc2cc(C3=NCC(CC(=O)NC[C@@H](C)O)S3)[nH]c12` (stereo partly drawn) [Example 81, N-[(2R)-2-Hydroxypropyl]-2-[2-(7-methoxy-5-{[6-(methylsulfonyl)pyridin-3-yl]oxy}-1H-indol-2-yl)-4,5-dihydro-1,3-thiazol-5-yl]acetamide], for which the melting point fell in the range of 185 to 186 °C. The compound further had a pEC50 in data set [1] of 7.42.

For `Cn1ccnc1COc1cc(Oc2ccc(S(C)(=O)=O)cc2)cc2cc(C3=NCC(CC(N)=O)S3)[nH]c12` (stereo not shown) [Example 11, 2-(2-{7-[(1-Methyl-1H-imidazol-2-yl)methoxy]-5-[4-(methylsulfonyl)phenoxy]-1H-indol-2-yl}-4,5-dihydro-1,3-thiazol-5-yl)acetamide], the melting point fell in the range of 130 to 131 °C. For the same compound, in data set [1], the pEC50 is 7.28.

Regarding `CS(=O)(=O)c1ccc(Oc2cc(OCc3ccccc3)c3[nH]c(C4=NCC(CC(=O)O)S4)cc3c2)cc1` (stereo not shown) [Example 3, (2-{7-(Benzyloxy)-5-[4-(methylsulfonyl)phenoxy]-1H-indol-2-yl}-4,5-dihydro-1,3-thiazol-5-yl)acetic acid], the melting point lay in the range of 218 to 219 °C. This compound also showed a pEC50 in data set [1] of 7.26.

Regarding `CS(=O)(=O)c1ccc(Oc2cc(OCc3cccc(Cl)n3)c3[nH]c(C4=NCC(CC(=O)O)S4)cc3c2)cc1` (stereo not shown) [Example 7, (2-{7-[(6-Chloropyridin-2-yl)methoxy]-5-[4-(methylsulfonyl)phenoxy]-1H-indol-2-yl}-4,5-dihydro-1,3-thiazol-5-yl)acetic acid], the melting point fell in the range of 175 to 176 °C. In data set [1], this compound showed a pEC50 of 7.38.

The compound `CC(CO)Oc1cc(Oc2ccc(S(C)(=O)=O)cc2)cc2cc(C3=NCC(CCO)S3)[nH]c12` (stereo not shown) [Example 16, 2-({2-[5-(2-Hydroxyethyl)-4,5-dihydro-1,3-thiazol-2-yl]-5-[4-(methylsulfonyl)phenoxy]-1H-indole-7-yl}oxy)propan-1-ol] came in with a melting point of 165 to 169 °C. The same compound showed a negative logarithm of the EC50 (pEC50) in data set [1] of 7.48.

Compound `CNC(=O)CC1CN=C(c2cc3cc(Oc4ccc(S(C)(=O)=O)nc4)cc(OC)c3[nH]2)S1` (single isomer, unassigned) [Example 31, 2-[2-(7-Methoxy-5-{[6-(methylsulfonyl)pyridin-3-yl]oxy}-1H-indol-2-yl)-4,5-dihydro-1,3-thiazol-5-yl]-N-methylacetamide] came in with a melting point of 196 to 197 °C. The same compound gave a pEC50 in data set [1] of 7.55.

`COc1cc(Oc2ccc(S(C)(=O)=O)nc2)cc2cc(C3=NCC(CC(=O)NCC(C)(C)O)S3)[nH]c12` (single isomer, unassigned) [Example 74] showed a melting point of 173 to 174 °C. In data set [1], this compound had a pEC50 of 7.55.

For the origin of these results see patent US8673942B2, “Fused ring compounds and use thereof” (Takeda Pharmaceutical Company Limited, priority 2008, dated 2014).
